Source: BindingDB's records for doi:10.1021/jm980290i (Research Triangle Institute, 1998)

Assay: Inhibition of [35S]GTP-gamma-S, binding in guinea pig caudate stimulated by SNC80 (Opioid receptor delta 1)

C[C@H]1C2CCCC1(c1cccc(O)c1)CCN2CCc1ccccc1 (stereo partly drawn) [3-((R)-9-Methyl-2-phenethyl-2-aza-bicyclo[3.3.1]non-5-yl)-phenol]
Ki: 13 nM
